# Test results taken from PubChem BioAssay AID2060488 (Molecular Pharmacology Branch, DTP, NCI, 2025).
# System: 966289-007-R4-J1-PDC complex spheroid viability
# Assay: Anticancer human tumor 966289-007-R4-J1-PDC patient-derived pancreatic adenocarcinoma cell line growth inhibition [GQUAD]
# Conditions: for IC50: curve of first compound; for viability, T/C: stronger effect = lower value
# Summary of the method: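 Viability of tumor cells grown as complex spheroids with endothelial and stromal cells, exposed to drug combinations. Top concentration at or near clinical Cmax (else 10 microM), diluted in half-log increments.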
# [1] = second compound 0.0316 µM, first compound 0.0316 µM
# [2] = second compound 0.0316 µM, first compound 0.1 µM
# [3] = second compound 0.0316 µM, first compound 0.316 µM
# [4] = second compound 0.0316 µM, first compound 1 µM
# [5] = second compound 0.0316 µM, first compound 3.16 µM
# [6] = second compound 0.0316 µM, first compound 10 µM
# [7] = second compound 0.1 µM, first compound 0.0316 µM
# [8] = second compound 0.1 µM, first compound 0.1 µM
# [9] = second compound 0.1 µM, first compound 0.316 µM
# [10] = second compound 0.1 µM, first compound 1 µM
# [11] = second compound 0.1 µM, first compound 3.16 µM
# [12] = second compound 0.1 µM, first compound 10 µM
# [13] = second compound 0.316 µM, first compound 0.0316 µM
# [14] = second compound 0.316 µM, first compound 0.1 µM
# [15] = second compound 0.316 µM, first compound 0.316 µM
# [16] = second compound 0.316 µM, first compound 1 µM
# [17] = second compound 0.316 µM, first compound 3.16 µM
# [18] = second compound 0.316 µM, first compound 10 µM
# [19] = second compound 1 µM, first compound 0.0316 µM
# [20] = second compound 1 µM, first compound 0.1 µM
# [21] = second compound 1 µM, first compound 0.316 µM
# [22] = second compound 1 µM, first compound 1 µM
# [23] = second compound 1 µM, first compound 3.16 µM
# [24] = second compound 1 µM, first compound 10 µM
# [25] = second compound 3.16 µM, first compound 0.0316 µM
# [26] = second compound 3.16 µM, first compound 0.1 µM
# [27] = second compound 3.16 µM, first compound 0.316 µM
# [28] = second compound 3.16 µM, first compound 1 µM
# [29] = second compound 3.16 µM, first compound 3.16 µM
# [30] = second compound 3.16 µM, first compound 10 µM
# [31] = second compound 10 µM, first compound 0.0316 µM
# [32] = second compound 10 µM, first compound 0.1 µM
# [33] = second compound 10 µM, first compound 0.316 µM
# [34] = second compound 10 µM, first compound 1 µM
# [35] = second compound 10 µM, first compound 3.16 µM
# [36] = second compound 10 µM, first compound 10 µM
# 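Further: spheroids exposed to the agents for seven days before readout.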
# 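Wherever viability, T/C is given: percent viability relative to DMSO vehicle control wells taken as 100%.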
smiles,measurement,setting,value
CC(=O)O[C@H]1C(=O)[C@@]2(C)[C@H]([C@H](OC(=O)c3ccccc3)[C@]3(O)C[C@H](OC(=O)[C@H](O)[C@@H](NC(=O)c4ccccc4)c4ccccc4)C(C)=C1C3(C)C)[C@]1(OC(C)=O)CO[C@@H]1C[C@@H]2O + CN(C)c1ccc(Nc2c3ccc(NC(=O)CCN4CCCC4)cc3nc3cc(NC(=O)CCN4CCCC4)ccc23)cc1,IC50,second compound 0.0316 µM,< 31.6 nM
same,IC50,second compound 0.1 µM,< 31.6 nM
same,IC50,second compound 0.316 µM,< 31.6 nM
same,IC50,second compound 1 µM,< 31.6 nM
same,IC50,second compound 3.16 µM,< 31.6 nM
same,IC50,second compound 10 µM,< 31.6 nM
same,"viability, T/C",[1],6.18%
same,"viability, T/C",[2],3.03%
same,"viability, T/C",[3],4.68%
same,"viability, T/C",[4],5.91%
same,"viability, T/C",[5],9.45%
same,"viability, T/C",[6],14.6%
same,"viability, T/C",[7],6.28%
same,"viability, T/C",[8],3.31%
same,"viability, T/C",[9],4.65%
same,"viability, T/C",[10],7.21%
same,"viability, T/C",[11],8.08%
same,"viability, T/C",[12],13.5%
same,"viability, T/C",[13],6.93%
same,"viability, T/C",[14],3.41%
same,"viability, T/C",[15],4.38%
same,"viability, T/C",[16],6.89%
same,"viability, T/C",[17],8.86%
same,"viability, T/C",[18],12.6%
same,"viability, T/C",[19],6.47%
same,"viability, T/C",[20],3.38%
same,"viability, T/C",[21],4.34%
same,"viability, T/C",[22],6.41%
same,"viability, T/C",[23],9.91%
same,"viability, T/C",[24],12%
same,"viability, T/C",[25],5.06%
same,"viability, T/C",[26],3.06%
same,"viability, T/C",[27],4.72%
same,"viability, T/C",[28],6.71%
same,"viability, T/C",[29],7.72%
same,"viability, T/C",[30],11.3%
same,"viability, T/C",[31],3.86%
same,"viability, T/C",[32],2.35%
same,"viability, T/C",[33],3.67%
same,"viability, T/C",[34],4.43%
same,"viability, T/C",[35],6.04%
same,"viability, T/C",[36],6.46%
COc1cc(C2c3cc4c(cc3C(OC3OC5COC(C)OC5C(O)C3O)C3COC(=O)C23)OCO4)cc(OC)c1O (stereo not given) + CN(C)c1ccc(Nc2c3ccc(NC(=O)CCN4CCCC4)cc3nc3cc(NC(=O)CCN4CCCC4)ccc23)cc1,IC50,second compound 0.0316 µM,300 nM
same,IC50,second compound 0.1 µM,301 nM
same,IC50,second compound 0.316 µM,271 nM
same,IC50,second compound 1 µM,276 nM
same,IC50,second compound 3.16 µM,270 nM
same,IC50,second compound 10 µM,202 nM
same,"viability, T/C",[1],115%
same,"viability, T/C",[2],105%
same,"viability, T/C",[3],46.6%
same,"viability, T/C",[4],9.16%
same,"viability, T/C",[5],1.79%
same,"viability, T/C",[6],0.77%
same,"viability, T/C",[7],111%
same,"viability, T/C",[8],107%
same,"viability, T/C",[9],46.6%
same,"viability, T/C",[10],9.53%
same,"viability, T/C",[11],1.99%
same,"viability, T/C",[12],0.86%
same,"viability, T/C",[13],101%
same,"viability, T/C",[14],104%
same,"viability, T/C",[15],41.9%
same,"viability, T/C",[16],5.72%
same,"viability, T/C",[17],2.08%
same,"viability, T/C",[18],0.76%
same,"viability, T/C",[19],104%
same,"viability, T/C",[20],109%
same,"viability, T/C",[21],42.4%
same,"viability, T/C",[22],6.82%
same,"viability, T/C",[23],1.89%
same,"viability, T/C",[24],1.07%
same,"viability, T/C",[25],96.1%
same,"viability, T/C",[26],108%
same,"viability, T/C",[27],41.8%
same,"viability, T/C",[28],6.04%
same,"viability, T/C",[29],2.44%
same,"viability, T/C",[30],0.87%
same,"viability, T/C",[31],108%
same,"viability, T/C",[32],98.1%
same,"viability, T/C",[33],19.4%
same,"viability, T/C",[34],3.24%
same,"viability, T/C",[35],1.49%
same,"viability, T/C",[36],0.61%
COc1cccc2c1C(=O)c1c(O)c3c(c(O)c1C2=O)CC(O)(C(=O)CO)CC3OC1CC(N)C(O)C(C)O1 (stereo not given) + CN(C)c1ccc(Nc2c3ccc(NC(=O)CCN4CCCC4)cc3nc3cc(NC(=O)CCN4CCCC4)ccc23)cc1,IC50,second compound 0.0316 µM,69.2 nM
same,IC50,second compound 0.1 µM,67.1 nM
same,IC50,second compound 0.316 µM,65.1 nM
same,IC50,second compound 1 µM,66.2 nM
same,IC50,second compound 3.16 µM,65.7 nM
same,IC50,second compound 10 µM,59.6 nM
same,"viability, T/C",[1],112%
same,"viability, T/C",[2],20.7%
same,"viability, T/C",[3],3.69%
same,"viability, T/C",[4],0.82%
same,"viability, T/C",[5],0.35%
same,"viability, T/C",[6],0.92%
same,"viability, T/C",[7],108%
same,"viability, T/C",[8],19.4%
same,"viability, T/C",[9],3.8%
same,"viability, T/C",[10],0.83%
same,"viability, T/C",[11],0.26%
same,"viability, T/C",[12],0.53%
same,"viability, T/C",[13],105%
same,"viability, T/C",[14],17.7%
same,"viability, T/C",[15],3.65%
same,"viability, T/C",[16],0.88%
same,"viability, T/C",[17],0.29%
same,"viability, T/C",[18],0.67%
same,"viability, T/C",[19],101%
same,"viability, T/C",[20],21.3%
same,"viability, T/C",[21],3.85%
same,"viability, T/C",[22],0.93%
same,"viability, T/C",[23],0.27%
same,"viability, T/C",[24],0.34%
same,"viability, T/C",[25],106%
same,"viability, T/C",[26],18.1%
same,"viability, T/C",[27],3.67%
same,"viability, T/C",[28],0.97%
same,"viability, T/C",[29],0.25%
same,"viability, T/C",[30],0.67%
same,"viability, T/C",[31],97.9%
same,"viability, T/C",[32],11%
same,"viability, T/C",[33],1.38%
same,"viability, T/C",[34],0.42%
same,"viability, T/C",[35],0.24%
same,"viability, T/C",[36],0.29%
Nc1ccn(C2OC(CO)C(O)C2(F)F)c(=O)n1 (stereo not given) + CN(C)c1ccc(Nc2c3ccc(NC(=O)CCN4CCCC4)cc3nc3cc(NC(=O)CCN4CCCC4)ccc23)cc1,IC50,second compound 0.0316 µM,< 31.6 nM
same,IC50,second compound 0.1 µM,< 31.6 nM
same,IC50,second compound 0.316 µM,< 31.6 nM
same,IC50,second compound 1 µM,< 31.6 nM
same,IC50,second compound 3.16 µM,< 31.6 nM
same,IC50,second compound 10 µM,< 31.6 nM
same,"viability, T/C",[1],14%
same,"viability, T/C",[2],1.18%
same,"viability, T/C",[3],0.88%
same,"viability, T/C",[4],0.96%
same,"viability, T/C",[5],0.85%
same,"viability, T/C",[6],0.89%
same,"viability, T/C",[7],10.8%
same,"viability, T/C",[8],2.18%
same,"viability, T/C",[9],0.86%
same,"viability, T/C",[10],1.06%
same,"viability, T/C",[11],0.89%
same,"viability, T/C",[12],1.03%
same,"viability, T/C",[13],8.99%
same,"viability, T/C",[14],1.42%
same,"viability, T/C",[15],0.99%
same,"viability, T/C",[16],0.97%
same,"viability, T/C",[17],0.84%
same,"viability, T/C",[18],0.93%
same,"viability, T/C",[19],9.78%
same,"viability, T/C",[20],1.73%
same,"viability, T/C",[21],1.22%
same,"viability, T/C",[22],1.01%
same,"viability, T/C",[23],0.89%
same,"viability, T/C",[24],0.91%
same,"viability, T/C",[25],8.33%
same,"viability, T/C",[26],1.17%
same,"viability, T/C",[27],1.01%
same,"viability, T/C",[28],0.9%
same,"viability, T/C",[29],1.5%
same,"viability, T/C",[30],0.99%
same,"viability, T/C",[31],5.04%
same,"viability, T/C",[32],1.02%
same,"viability, T/C",[33],1.04%
same,"viability, T/C",[34],0.83%
same,"viability, T/C",[35],0.85%
same,"viability, T/C",[36],0.85%
O=c1[nH]cc(F)c(=O)[nH]1 + CN(C)c1ccc(Nc2c3ccc(NC(=O)CCN4CCCC4)cc3nc3cc(NC(=O)CCN4CCCC4)ccc23)cc1,IC50,second compound 0.0316 µM,205 nM
same,IC50,second compound 0.1 µM,209 nM
same,IC50,second compound 0.316 µM,208 nM
same,IC50,second compound 1 µM,206 nM
same,IC50,second compound 3.16 µM,213 nM
same,IC50,second compound 10 µM,195 nM
same,"viability, T/C",[1],104%
same,"viability, T/C",[2],103%
same,"viability, T/C",[3],18.4%
same,"viability, T/C",[4],6.28%
same,"viability, T/C",[5],5.63%
same,"viability, T/C",[6],6.35%
same,"viability, T/C",[7],103%
same,"viability, T/C",[8],113%
same,"viability, T/C",[9],17.7%
same,"viability, T/C",[10],7.05%
same,"viability, T/C",[11],5.04%
same,"viability, T/C",[12],6.55%
same,"viability, T/C",[13],105%
same,"viability, T/C",[14],109%
same,"viability, T/C",[15],17.5%
same,"viability, T/C",[16],7.23%
same,"viability, T/C",[17],5.77%
same,"viability, T/C",[18],6.78%
same,"viability, T/C",[19],103%
same,"viability, T/C",[20],107%
same,"viability, T/C",[21],17.5%
same,"viability, T/C",[22],6.91%
same,"viability, T/C",[23],5.6%
same,"viability, T/C",[24],5.8%
same,"viability, T/C",[25],101%
same,"viability, T/C",[26],106%
same,"viability, T/C",[27],22.2%
same,"viability, T/C",[28],8.51%
same,"viability, T/C",[29],5.41%
same,"viability, T/C",[30],5.54%
same,"viability, T/C",[31],93.8%
same,"viability, T/C",[32],103%
same,"viability, T/C",[33],14.6%
same,"viability, T/C",[34],4.55%
same,"viability, T/C",[35],3.52%
same,"viability, T/C",[36],3.2%
